Series [1] concerns SARS-CoV-2 (hCoV-19/Egypt/NRC-03/2020). Conditions: cited from earlier work.
A further series in a line: in vitro. Conditions: African green monkey.
For series [2], the system named is SARS-CoV-2 (hCoV-19/Egypt/NRC-03/2020). As to the kind of experiment: Inhibitory concentration 50 (IC50) determination, crystal violet CPE assay in VERO-E6 cells. As to conditions: for IC50: 50% reduction of virus-induced CPE.
Series [3] deals with VERO-E6 cells. As to conditions: African green monkey.
For series [4], the system named is VERO-E6 cells. As to conditions: cited from earlier work.
The mark [5] stands for this setting: standard reference drug, SARS-CoV-2.
The mark [6] stands for this setting: Severe acute respiratory syndrome coronavirus 2, Vero C1008, SARS-CoV-2 in VERO-E6 cells.

Several values for one entry are separate records, joined by “and”; a condition that tells them apart may be missing. Identical values can stand only once. Like-named read-outs stand apart in the source and are kept apart here.

In the case of `CCN(CC)CCCC(C)Nc1ccnc2cc(Cl)ccc12` (stereo not drawn) [Chloroquine], the IC50 in series [1] (setting [5]) is 24.9 µM.
Consider `CCOC(=O)c1cnn2c(-c3ccccc3)nc(NCc3ccccc3)nc12` [Compound 1], for which the CC50 in the series “in vitro” was 463 µM. Besides, the IC50 in series [2] (SARS-CoV-2 in VERO-E6 cells) is 2.4 µM; in series [2] (setting [6]), 2.45 µM. Besides, the “SI (CC50/IC50)” value in series [2] is 190 and 192.8.
In the case of `CCOC(=O)c1cnn2c(-c3ccc(Br)cc3)nc(NCc3ccccc3)nc12` [Compound 2], the CC50 in “in vitro” was 445 µM. For the same compound, the IC50 in series [2] (SARS-CoV-2 in VERO-E6 cells) and in series [2] (setting [6]) was 11.2 µM throughout. The “SI (CC50/IC50)” value in series [2] was 39.7.
`CCOC(=O)c1cnn2c(-c3ccc(Cl)cc3)nc(NCc3ccccc3)nc12` [Compound 3]: the values for the CC50 with VERO-E6 cells [3] and in the series “in vitro” were 88 µM and 88.1 µM, respectively. Moreover, the IC50 in series [2] (SARS-CoV-2 in VERO-E6 cells) and in series [2] (setting [6]) was 17.8 µM in each case. Further, the “SI (CC50/IC50)” value in series [2] came to 4.9.
In the series “in vitro”, `CCOC(=O)c1cnn2c(-c3ccccc3)nc(N3CCCCC3)nc12` [Compound 4] gave a CC50 of 366 µM. Also, the values for the IC50 in series [2] (SARS-CoV-2 in VERO-E6 cells) and in series [2] (setting [6]) were 61.8 µM and 61.9 µM, respectively. The “SI (CC50/IC50)” value in series [2] is given as 5.9.
In the series “in vitro”, `CCOC(=O)c1cnn2c(-c3ccc(Cl)cc3)nc(N3CCCCC3)nc12` [Compound 5] came in with a CC50 of 87.5 µM. In addition, the “SI (CC50/IC50)” value in series [2] is 31.2. Further, it took 2.8 µM to reach half-maximal inhibition in series [2] (setting [6]) (IC50).
`CCOC(=O)c1cnn2c(-c3ccccc3)nc(NCCc3ccccc3)nc12` [Compound 6]: in series [2], the “SI (CC50/IC50)” value was 2.5.
For the compound `CCOC(=O)c1cnn2c(-c3ccc(Br)cc3)nc(N3CCCC3)nc12` [Compound 7], in “in vitro”, the CC50 was found to be 279 µM. In addition, the “SI (CC50/IC50)” value in series [2] was found to be 10.6. Besides, the IC50 in series [2] (setting [6]) was 26.1 µM.
Turning to `O=C(NCc1ccccc1)c1cnn2c(-c3ccccc3)nc(NCc3ccccc3)nc12` [Compound 8], the CC50 in the series “in vitro” worked out at 400 µM. For the same compound, the IC50 is 55 µM in series [2] (SARS-CoV-2 in VERO-E6 cells) and 55.1 µM in series [2] (setting [6]). Further, in series [2], the “SI (CC50/IC50)” value was found to be 7.2.
The corresponding values for `O=C(NCCc1ccccc1)c1cnn2c(-c3ccccc3)nc(NCCc3ccccc3)nc12` [Compound 9] are 578 µM, 44.2 µM, 44.2 µM and 13.0.
On to `O=C(NCCc1ccccc1)c1cnn2c(-c3ccc(Cl)cc3)nc(NCCc3ccccc3)nc12` [Compound 10], for which, in the series “in vitro”, the CC50 was 343 µM. Moreover, the figures for the IC50 in series [2] (SARS-CoV-2 in VERO-E6 cells) and in series [2] (setting [6]) were 60.7 µM and 60.8 µM, respectively. Further, in series [2], the “SI (CC50/IC50)” value came out at 5.6.
Take `NC(=O)c1nc(F)c[nH]c1=O` [Favipiravir]: the IC50 in series [1] (setting [5]) was 1380 µM. The “SI (CC50/IC50)” value in series [1] (standard reference drug) is given as 3.8. Further, the CC50 in the series on VERO-E6 cells [4] was 5260 µM.
Consider `CCN(CCO)CCCC(C)Nc1ccnc2cc(Cl)ccc12` (stereo not drawn) [Hydroxy-chloroquine, Hydroxychloroquine], for which the 50% inhibitory concentration (IC50) in series [1] (setting [5]) was 36.9 µM. Also, the “SI (CC50/IC50)” value in series [1] (standard reference drug) is given as 9.7. In addition, the CC50 with VERO-E6 cells [4] (standard reference drug) is 356 µM.
As to `CCC(CC)COC(=O)[C@H](C)N[P@](=O)(OC[C@H]1O[C@@](C#N)(c2ccc3c(N)ncnn23)[C@H](O)[C@@H]1O)Oc1ccccc1` [Remdesivir], in series [1] (reference drug), the IC50 is 3.38 µM. Also, in the series with VERO-E6 cells [4] (reference drug), the CC50 was 58.1 µM.

By IC50 is commonly meant the concentration that gives 50% inhibition.
